Active and inactive are the calls of the source.
What was measured:
[1] = human group III sPLA2 inhibitors, dose response, biochemical, QFRET, IC50 (AID 743457);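 note: green fluorescence rise as the enzyme cleaves BODIPY PC-A2 in liposomes; potency for inhibition of the enzyme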
Hexokinase HKDC1 = target: T1, Hexokinase HKDC1 (Homo sapiens, UniProt Q2TB90); assay: HKDC1 hexokinase inhibitors, dose response, biochemical, W721R variant (AID 504729); format: functional
T1 sequence (Q2TB90 whole entry): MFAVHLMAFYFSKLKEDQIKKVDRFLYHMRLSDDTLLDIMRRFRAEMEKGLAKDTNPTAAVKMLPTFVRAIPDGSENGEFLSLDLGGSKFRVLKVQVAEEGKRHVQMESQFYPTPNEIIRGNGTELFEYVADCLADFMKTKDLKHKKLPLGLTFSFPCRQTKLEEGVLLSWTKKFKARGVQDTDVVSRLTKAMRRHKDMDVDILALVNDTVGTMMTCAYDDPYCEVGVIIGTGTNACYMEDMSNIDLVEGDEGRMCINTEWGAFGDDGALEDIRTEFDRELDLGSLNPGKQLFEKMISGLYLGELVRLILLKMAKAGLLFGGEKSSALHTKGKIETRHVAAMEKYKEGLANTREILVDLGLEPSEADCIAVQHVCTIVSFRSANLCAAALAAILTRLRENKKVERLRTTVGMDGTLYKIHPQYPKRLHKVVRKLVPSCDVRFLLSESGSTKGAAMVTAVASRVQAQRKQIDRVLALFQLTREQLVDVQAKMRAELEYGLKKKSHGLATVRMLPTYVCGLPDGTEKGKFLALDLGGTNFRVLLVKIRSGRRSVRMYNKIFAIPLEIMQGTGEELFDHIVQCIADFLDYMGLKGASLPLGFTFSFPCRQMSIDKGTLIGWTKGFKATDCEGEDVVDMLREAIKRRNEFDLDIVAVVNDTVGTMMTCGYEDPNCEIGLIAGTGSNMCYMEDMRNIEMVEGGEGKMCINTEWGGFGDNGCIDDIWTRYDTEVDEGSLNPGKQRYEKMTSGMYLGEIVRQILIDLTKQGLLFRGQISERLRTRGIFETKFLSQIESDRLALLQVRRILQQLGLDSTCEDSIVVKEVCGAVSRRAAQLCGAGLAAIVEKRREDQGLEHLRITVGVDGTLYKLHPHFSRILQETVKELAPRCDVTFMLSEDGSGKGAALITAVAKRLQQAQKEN

[2] = target: Eukaryotic translation initiation factor 4E (Mus musculus, UniProt P63073); assay: eIF4E–eIF4G protein interaction inhibitors, dose response, biochemical, TR-FRET (AID 855); format: functional;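 note: potency for disrupting eIF4E binding to eIF4GI seen as loss of FRET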
Beta-galactosidase = Beta-galactosidase (Escherichia coli, UniProt Q8VNN2); assay: beta-galactosidase enzyme inhibitors and activators, dose response, artefact control for CCR6 antagonist project, biochemical, E. coli enzyme, set 3 (AID 504712); format: functional
[3] = target: T2, Polyadenylate-binding protein 1 (Homo sapiens, UniProt P11940); assay: PABP1 MLLE–PAM2 binding inhibitor potency, dose response, biochemical, fluorescence polarization, FITC-PAM2 peptide (AID 602259); format: functional; conditions: read-out: IC50_Mean
[4] = THP-1 cell cytotoxicity, dose response, cytotoxicity control for non-replicating M. tuberculosis project (AID 489025); format: functional
[5] = THP-1 cell cytotoxicity, dose response, cytotoxicity control for Vif-APOBEC3G degradation inhibitor project, THP-1 cells (AID 1117359); format: functional; conditions: Human immunodeficiency virus 1, THP-1
[6] = target: C-C chemokine receptor type 6 (Homo sapiens, UniProt P51684); assay: CCR6 receptor antagonists, dose response, cell-based, luminescent beta-arrestin readout (AID 504728); format: functional
[7] = target: T2, Polyadenylate-binding protein 1; assay: PABP1 MLLE–PAM2 interaction inhibitors, dose response, miRNA deadenylation inhibitor project, biochemical, fluorescence polarization, Cy5-PAM2 peptide, secondary (AID 602260); format: functional; conditions: read-out: IC50_Mean
[8] = target: Glucose-6-phosphate 1-dehydrogenase (Homo sapiens, UniProt P11413); assay: human G6PD enzyme inhibitors, dose response, selectivity assay for P. falciparum G6PD inhibitor project, biochemical, fluorescence (AID 504792); format: functional
[9] = target: Induced myeloid leukemia cell differentiation protein Mcl-1 (Homo sapiens, UniProt Q07820); format: functional
[10] = inhibitors of intracellular T. cruzi replication, confirmation, NIH3T3 host cells, beta-gal luminescence (AID 2044); format: functional, cell-based;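 note: intracellular parasites grown in NIH/3T3 mouse fibroblasts as host cells; luminescent beta-galactosidase reporter signal from transgenic T. cruzi replicating inside host cells; inhibitors lower the luminescence signal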
[11] = cytotoxicity toward NIH3T3 fibroblasts, dose response, counter-screen, cell-based, ATP luminescence, mouse fibroblasts (AID 2010); format: functional;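 note: cells exposed to compound for about 90 hours before reading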
Caspase-7 = Caspase-7 (Homo sapiens, UniProt P55210); assay: procaspase-7 activators, dose response, counter-screen for procaspase-3 activator project, biochemical, absorbance (AID 489013)
Caspase-3 = target: T3, Caspase-3 (Homo sapiens, UniProt P42574); assay: procaspase-3 activators, dose response, biochemical, absorbance (AID 489014)
T3 sequence (P42574 whole entry): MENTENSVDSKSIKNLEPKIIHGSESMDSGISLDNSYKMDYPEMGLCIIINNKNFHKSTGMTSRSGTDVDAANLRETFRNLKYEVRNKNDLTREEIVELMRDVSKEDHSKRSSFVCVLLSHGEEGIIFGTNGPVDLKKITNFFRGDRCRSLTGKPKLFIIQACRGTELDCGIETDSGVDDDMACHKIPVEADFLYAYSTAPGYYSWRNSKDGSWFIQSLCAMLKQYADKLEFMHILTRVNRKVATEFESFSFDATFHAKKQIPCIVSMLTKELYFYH

[12] = NIH-3T3 fibroblast cytotoxicity, dose response, cytotoxicity control, cell-based, fluorescence, Alamar Blue, secondary assay (AID 2327); format: functional;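 note: NIH-3T3 mouse fibroblasts cultured with fluconazole at 8 µg/mL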
[13] = C. albicans growth with fluconazole, confirmation, fluorescence, retest (AID 2467); format: functional, cell-based
[14] = target: Envelope glycoprotein gp160 (Human immunodeficiency virus 1, UniProt Q6QLK5); assay: inhibitors of HIV fusion peptide binding, primary screen, biochemical, uHTS, fluorescence dequenching (AID 1986)
[15] = target: ATP-dependent molecular chaperone HSP82 (Candida albicans (strain WO-1) (Yeast), UniProt C4YTQ8); assay: loss of DOC-induced GRE-beta-galactosidase reporter signal, dose response, Hsp90 inhibitor project, S. cerevisiae, luminescence (AID 2400); format: functional, cell-based;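 note: beta-galactosidase luminescence from glucocorticoid response element reporter as proxy for Hsp90 function; inhibitor potency where signal loss means Hsp90 inhibition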
[16] = target: T4, Serine/threonine-protein phosphatase (Candida dubliniensis (strain CD36 / CBS 7987 / NCPF 3949 / NRRLY-17841) (Yeast), UniProt B9W6M3); assay: calcineurin pathway inhibitors in yeast reporter, dose response, S. cerevisiae, CDRE-lacZ, luminescence, secondary (AID 2388); format: functional, cell-based;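 note: yeast reporter cells carrying a calcineurin-responsive lacZ construct stimulated with calcium chloride; luminescent beta-galactosidase reporter signal in whole cells rather than isolated phosphatase activity; potency for inhibition where a drop in reporter signal means calcineurin blockade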
T4 sequence (B9W6M3 whole entry): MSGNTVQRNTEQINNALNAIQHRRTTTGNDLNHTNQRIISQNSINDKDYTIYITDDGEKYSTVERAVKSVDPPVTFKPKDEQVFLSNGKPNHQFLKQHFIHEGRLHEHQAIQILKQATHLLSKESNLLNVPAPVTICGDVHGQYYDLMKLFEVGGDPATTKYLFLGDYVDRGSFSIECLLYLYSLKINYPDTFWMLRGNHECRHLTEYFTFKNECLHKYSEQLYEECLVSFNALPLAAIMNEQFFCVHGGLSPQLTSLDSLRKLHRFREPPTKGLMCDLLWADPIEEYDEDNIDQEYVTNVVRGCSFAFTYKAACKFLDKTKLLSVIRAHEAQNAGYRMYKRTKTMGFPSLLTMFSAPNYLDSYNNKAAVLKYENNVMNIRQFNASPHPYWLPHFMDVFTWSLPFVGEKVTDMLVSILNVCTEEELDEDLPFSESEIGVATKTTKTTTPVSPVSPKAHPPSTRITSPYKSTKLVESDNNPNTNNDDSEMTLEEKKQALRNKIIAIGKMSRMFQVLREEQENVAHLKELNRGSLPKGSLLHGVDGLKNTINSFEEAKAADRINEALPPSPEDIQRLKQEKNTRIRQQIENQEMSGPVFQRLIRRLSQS

[17] = HEp-2 cell cytotoxicity, dose response, cytotoxicity control for RSV inhibitor project, HTS (AID 2410); format: functional; conditions: human respiratory syncytial virus
[18] = target: T5, Kappa-type opioid receptor (Homo sapiens, UniProt P41145); format: functional
Mu-type opioid receptor [19] = target: T6, Mu-type opioid receptor (Homo sapiens, UniProt P35372); assay: MOR antagonists, SAR follow-up, image-based (AID 2420); format: functional;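 note: compounds added before stimulation of receptor with agonist DAMGO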
[20] = target: T7, Delta-type opioid receptor (Homo sapiens, UniProt P41143); assay: DOR agonists, SAR follow-up, image-based (AID 2370); format: functional
Mu-type opioid receptor [21] = target: T6, Mu-type opioid receptor; assay: MOR agonists by imaging, SAR follow-up, image-based (AID 2352); format: functional
[22] = target: T7, Delta-type opioid receptor; assay: DOR antagonists, SAR follow-up, image-based (AID 2357); format: functional
[23] = target: T5, Kappa-type opioid receptor; assay: KOR antagonists by imaging, SAR follow-up, image-based (AID 2348); format: functional
[24] = target: T5, Kappa-type opioid receptor; format: functional; remark: listed apart in the source
Mu-type opioid receptor [25] = target: T6, Mu-type opioid receptor; assay: HTS Image-Based Screen for Agonists of the MOR Receptor. [Related pubchem assays (depositor defined):AID1777, AID1785, AID1786, AID2133]; format: functional
[26] = target: T7, Delta-type opioid receptor; assay: HTS Image-Based Screen for Antagonists of the DOR Receptor. [Related pubchem assays (depositor defined):AID1777, AID1785, AID1786, AID2133]; format: functional
[27] = target: T7, Delta-type opioid receptor; assay: HTS Image-Based Screen for Agonists of the DOR Receptor. [Related pubchem assays (depositor defined):AID1777, AID1786, AID2133]; format: functional
[28] = target: Tyrosine-protein phosphatase non-receptor type 12 (Homo sapiens, UniProt Q05209); assay: SAR Selectivity Analysis of small molecule inhibitors of PEST using pCAP in a fluorescence assay. [Related pubchem assays (depositor defined):AID1779, AID1784, AID2135]; format: functional
[29] = target: T8, Tyrosine-protein phosphatase non-receptor type 22 (Homo sapiens, UniProt Q9Y2R2); assay: SAR LYP1 Fluorescent Assay using pCAP substrate for In Vitro dose response studies - Set 4. [Related pubchem assays (depositor defined):AID1779, AID1784]; format: functional
T8 sequence (Q9Y2R2 whole entry): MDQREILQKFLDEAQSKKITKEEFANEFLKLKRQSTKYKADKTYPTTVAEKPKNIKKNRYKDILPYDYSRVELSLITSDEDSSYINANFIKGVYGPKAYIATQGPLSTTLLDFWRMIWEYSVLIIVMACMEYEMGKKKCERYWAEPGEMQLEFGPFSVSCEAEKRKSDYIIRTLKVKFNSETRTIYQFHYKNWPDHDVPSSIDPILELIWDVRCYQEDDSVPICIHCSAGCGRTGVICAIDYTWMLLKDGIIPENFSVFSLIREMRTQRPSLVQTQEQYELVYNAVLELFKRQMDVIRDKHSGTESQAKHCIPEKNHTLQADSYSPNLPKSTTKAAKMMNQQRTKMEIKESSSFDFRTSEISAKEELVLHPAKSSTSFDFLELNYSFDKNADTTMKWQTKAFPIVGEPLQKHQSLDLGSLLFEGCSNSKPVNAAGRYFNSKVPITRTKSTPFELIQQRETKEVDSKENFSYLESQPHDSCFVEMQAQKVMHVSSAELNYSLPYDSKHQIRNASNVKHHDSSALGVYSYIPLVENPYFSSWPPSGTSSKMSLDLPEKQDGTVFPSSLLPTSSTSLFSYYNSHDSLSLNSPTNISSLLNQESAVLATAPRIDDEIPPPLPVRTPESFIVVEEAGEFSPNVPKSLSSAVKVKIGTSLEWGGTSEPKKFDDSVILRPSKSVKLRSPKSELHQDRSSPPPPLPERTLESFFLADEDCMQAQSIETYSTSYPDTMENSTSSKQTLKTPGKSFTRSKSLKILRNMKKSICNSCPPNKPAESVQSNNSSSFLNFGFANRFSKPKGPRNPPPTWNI

[30] = target: T8, Tyrosine-protein phosphatase non-receptor type 22; assay: SAR LYP1 Fluorescent Assay using OMFP substrate for In Vitro dose response studies - Set 4. [Related pubchem assays (depositor defined):AID1779, AID1784, AID2140, AID2686]; format: functional

T5 sequence (P41145 whole entry): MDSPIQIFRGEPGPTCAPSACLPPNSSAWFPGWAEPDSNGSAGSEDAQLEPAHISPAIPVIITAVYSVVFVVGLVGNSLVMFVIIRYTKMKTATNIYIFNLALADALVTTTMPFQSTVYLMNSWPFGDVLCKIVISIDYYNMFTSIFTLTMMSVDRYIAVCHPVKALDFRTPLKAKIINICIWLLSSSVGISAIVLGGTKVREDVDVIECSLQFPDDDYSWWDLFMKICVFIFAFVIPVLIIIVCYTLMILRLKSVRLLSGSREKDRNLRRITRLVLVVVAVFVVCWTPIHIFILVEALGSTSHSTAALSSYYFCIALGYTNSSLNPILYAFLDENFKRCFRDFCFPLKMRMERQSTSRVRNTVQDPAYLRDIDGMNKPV
T7 sequence (P41143 whole entry): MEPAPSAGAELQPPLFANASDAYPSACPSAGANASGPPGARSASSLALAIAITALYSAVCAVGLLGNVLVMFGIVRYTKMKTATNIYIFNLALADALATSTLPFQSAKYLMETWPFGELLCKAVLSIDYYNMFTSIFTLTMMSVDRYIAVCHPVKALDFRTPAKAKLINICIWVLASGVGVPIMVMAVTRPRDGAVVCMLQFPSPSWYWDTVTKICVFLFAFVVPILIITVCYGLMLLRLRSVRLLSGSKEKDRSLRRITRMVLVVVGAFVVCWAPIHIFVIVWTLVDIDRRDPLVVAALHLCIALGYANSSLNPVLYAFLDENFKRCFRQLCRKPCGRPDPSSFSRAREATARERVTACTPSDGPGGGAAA
T6 sequence (P35372 whole entry): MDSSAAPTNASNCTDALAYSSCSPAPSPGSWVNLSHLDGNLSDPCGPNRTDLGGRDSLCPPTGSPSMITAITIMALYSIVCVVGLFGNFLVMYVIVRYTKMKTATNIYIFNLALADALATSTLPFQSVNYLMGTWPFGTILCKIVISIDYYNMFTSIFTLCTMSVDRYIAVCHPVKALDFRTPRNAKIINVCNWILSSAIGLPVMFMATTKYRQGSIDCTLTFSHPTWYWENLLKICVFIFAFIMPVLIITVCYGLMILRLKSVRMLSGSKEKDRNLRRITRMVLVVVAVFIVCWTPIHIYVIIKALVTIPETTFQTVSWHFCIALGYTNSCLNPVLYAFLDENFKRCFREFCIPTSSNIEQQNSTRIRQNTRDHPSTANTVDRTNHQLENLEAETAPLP
T2 sequence (P11940 whole entry): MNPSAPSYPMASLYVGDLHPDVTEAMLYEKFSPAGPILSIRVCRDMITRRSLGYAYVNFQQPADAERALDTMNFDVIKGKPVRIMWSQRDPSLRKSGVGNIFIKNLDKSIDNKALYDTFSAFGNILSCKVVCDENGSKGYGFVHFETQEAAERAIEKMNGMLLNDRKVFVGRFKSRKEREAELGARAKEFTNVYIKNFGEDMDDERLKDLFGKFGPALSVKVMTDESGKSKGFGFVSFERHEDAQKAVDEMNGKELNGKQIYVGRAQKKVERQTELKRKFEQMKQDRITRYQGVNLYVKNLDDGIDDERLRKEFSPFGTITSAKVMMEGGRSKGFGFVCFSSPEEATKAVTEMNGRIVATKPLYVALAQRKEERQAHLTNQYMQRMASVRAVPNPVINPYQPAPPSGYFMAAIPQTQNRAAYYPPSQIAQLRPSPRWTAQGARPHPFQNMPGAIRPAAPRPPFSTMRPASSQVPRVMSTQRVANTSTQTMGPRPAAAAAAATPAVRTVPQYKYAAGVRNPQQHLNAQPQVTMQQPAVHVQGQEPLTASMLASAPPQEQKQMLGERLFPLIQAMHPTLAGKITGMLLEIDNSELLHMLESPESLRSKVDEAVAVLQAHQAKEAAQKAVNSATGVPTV
Sequence of Caspase-7 (P55210 24-198 limits assumed): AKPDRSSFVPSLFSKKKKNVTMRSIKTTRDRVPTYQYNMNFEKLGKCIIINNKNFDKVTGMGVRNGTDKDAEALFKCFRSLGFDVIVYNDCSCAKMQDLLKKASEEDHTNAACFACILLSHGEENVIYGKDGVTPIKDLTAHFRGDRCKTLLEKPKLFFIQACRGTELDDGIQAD
Sequence of Caspase-7 (P55210 207-303 limits assumed): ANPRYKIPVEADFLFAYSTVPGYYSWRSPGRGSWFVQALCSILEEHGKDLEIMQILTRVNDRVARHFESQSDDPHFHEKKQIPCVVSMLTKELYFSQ
Sequence of Glucose-6-phosphate 1-dehydrogenase (P11413 whole entry): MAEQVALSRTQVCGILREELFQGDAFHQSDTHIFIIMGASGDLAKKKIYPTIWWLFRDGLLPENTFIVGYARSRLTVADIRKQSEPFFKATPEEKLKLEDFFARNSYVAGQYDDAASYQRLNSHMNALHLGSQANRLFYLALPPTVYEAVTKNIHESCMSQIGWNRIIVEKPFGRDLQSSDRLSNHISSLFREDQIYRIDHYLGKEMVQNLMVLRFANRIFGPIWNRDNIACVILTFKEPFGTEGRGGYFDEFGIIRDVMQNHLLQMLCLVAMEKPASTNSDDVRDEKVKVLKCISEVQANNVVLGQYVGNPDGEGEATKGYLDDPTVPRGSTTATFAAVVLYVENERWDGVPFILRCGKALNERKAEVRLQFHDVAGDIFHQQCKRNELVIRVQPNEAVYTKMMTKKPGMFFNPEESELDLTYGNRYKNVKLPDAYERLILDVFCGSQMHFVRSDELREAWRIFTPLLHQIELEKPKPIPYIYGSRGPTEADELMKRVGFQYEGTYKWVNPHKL
Sequence of Envelope glycoprotein gp160 (Q6QLK5 whole entry, the tested form may be a part): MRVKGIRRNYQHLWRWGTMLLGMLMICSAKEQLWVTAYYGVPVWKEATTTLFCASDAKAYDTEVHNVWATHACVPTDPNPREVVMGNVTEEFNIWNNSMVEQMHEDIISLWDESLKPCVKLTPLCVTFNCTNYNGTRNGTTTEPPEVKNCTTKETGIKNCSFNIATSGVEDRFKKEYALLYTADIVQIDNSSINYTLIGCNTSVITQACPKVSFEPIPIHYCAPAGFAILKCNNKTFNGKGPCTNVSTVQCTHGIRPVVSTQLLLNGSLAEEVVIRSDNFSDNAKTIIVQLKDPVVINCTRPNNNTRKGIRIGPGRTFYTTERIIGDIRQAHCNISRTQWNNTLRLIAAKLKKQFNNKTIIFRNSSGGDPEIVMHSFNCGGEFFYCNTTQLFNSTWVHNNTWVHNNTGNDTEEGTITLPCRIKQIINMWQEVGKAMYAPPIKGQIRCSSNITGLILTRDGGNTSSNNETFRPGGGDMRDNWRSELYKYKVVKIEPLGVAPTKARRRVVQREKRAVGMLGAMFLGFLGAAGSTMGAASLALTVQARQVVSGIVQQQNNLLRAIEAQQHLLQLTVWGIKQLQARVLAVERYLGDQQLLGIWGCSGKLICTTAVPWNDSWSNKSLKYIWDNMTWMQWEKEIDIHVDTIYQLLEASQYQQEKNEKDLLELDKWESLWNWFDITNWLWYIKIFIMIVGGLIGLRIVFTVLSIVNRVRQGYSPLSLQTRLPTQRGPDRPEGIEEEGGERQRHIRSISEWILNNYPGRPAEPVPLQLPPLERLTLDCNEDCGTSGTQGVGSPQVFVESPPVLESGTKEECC
Sequence of Beta-galactosidase (Q8VNN2 whole entry): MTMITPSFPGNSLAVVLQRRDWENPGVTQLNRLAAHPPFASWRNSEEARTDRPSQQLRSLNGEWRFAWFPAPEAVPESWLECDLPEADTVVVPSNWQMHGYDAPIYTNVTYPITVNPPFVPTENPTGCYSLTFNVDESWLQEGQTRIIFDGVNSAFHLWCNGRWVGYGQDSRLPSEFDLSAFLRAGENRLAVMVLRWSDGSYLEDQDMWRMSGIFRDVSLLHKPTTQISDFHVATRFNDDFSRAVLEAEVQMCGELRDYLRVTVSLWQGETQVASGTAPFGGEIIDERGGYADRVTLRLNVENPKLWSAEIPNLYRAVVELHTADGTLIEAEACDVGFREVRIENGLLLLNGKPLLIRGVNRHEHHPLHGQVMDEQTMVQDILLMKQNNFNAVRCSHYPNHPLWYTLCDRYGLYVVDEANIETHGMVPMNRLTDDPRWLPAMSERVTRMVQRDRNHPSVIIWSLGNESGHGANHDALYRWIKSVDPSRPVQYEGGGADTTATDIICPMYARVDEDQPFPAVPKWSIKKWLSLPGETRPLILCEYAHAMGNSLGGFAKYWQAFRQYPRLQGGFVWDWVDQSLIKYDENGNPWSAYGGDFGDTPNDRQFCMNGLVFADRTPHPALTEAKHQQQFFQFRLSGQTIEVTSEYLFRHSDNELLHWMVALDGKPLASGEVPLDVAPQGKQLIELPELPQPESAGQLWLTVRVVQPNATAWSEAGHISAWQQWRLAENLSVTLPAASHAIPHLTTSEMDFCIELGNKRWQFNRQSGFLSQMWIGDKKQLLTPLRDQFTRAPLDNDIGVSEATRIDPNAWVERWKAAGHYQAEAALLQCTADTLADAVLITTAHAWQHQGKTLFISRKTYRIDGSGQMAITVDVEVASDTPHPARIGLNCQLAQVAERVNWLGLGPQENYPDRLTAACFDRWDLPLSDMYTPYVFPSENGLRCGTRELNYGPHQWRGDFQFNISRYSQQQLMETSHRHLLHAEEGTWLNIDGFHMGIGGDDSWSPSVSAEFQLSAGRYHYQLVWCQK
Sequence of Induced myeloid leukemia cell differentiation protein Mcl-1 (Q07820 whole entry): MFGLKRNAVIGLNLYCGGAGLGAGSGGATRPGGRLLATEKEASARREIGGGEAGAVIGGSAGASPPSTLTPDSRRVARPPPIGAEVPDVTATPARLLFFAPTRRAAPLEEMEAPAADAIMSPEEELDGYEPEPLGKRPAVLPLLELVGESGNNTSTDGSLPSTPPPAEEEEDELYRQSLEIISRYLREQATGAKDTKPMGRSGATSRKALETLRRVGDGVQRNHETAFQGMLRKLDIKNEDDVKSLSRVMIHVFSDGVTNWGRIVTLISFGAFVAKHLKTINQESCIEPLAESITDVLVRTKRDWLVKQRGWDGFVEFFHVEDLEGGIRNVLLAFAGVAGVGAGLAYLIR

## CNCc1ccccc1Sc1cc(O)ccc1O
[1]
  IC50: > 122 µM (inactive)
Hexokinase HKDC1
  IC50: 3.35 µM (active)
[2]
  IC50: > 64 µM (inactive)
Beta-galactosidase
  IC50: > 66.6 µM (inactive)
[3]
  IC50: > 66 µM (inactive)
[4]
  CC50: 38.8 µM (active)
[5]
  CC50: > 40 µM (active)
[6]
  IC50: 23.5 µM (inactive)
[7]
  IC50: > 66 µM (inactive)
[8]
  IC50: 26.9 µM (inactive)
[9]
  IC50: 4.5 µM (active)

## Cc1ccc(C)c(N(CC(=O)Nc2ccc(-c3nc4ccc(C)cc4s3)cc2)S(C)(=O)=O)c1
[10]
  EC50: 2.78 µM (active)
[11]
  EC50: > 60 µM (inconclusive)
Caspase-7
  EC50: > 85.2 µM (inactive)
Caspase-3
  EC50: > 85.2 µM (inactive)

## CC(C)CCN1C(=O)c2ccc(C(=O)Nc3ccc(Br)cc3C(=O)O)cc2C1=O
[12]
  EC50: > 160 µM (inactive)
[13]
  EC50: 2.46 µM (active)
[14]
  IC50: > 99 µM (inactive)
[15]
  EC50: 15.6 µM (active)
[16]
  EC50: > 180 µM (inactive)

## Clc1cccc(CSc2nnc(-c3ccccn3)n2Cc2ccco2)c1
[17]
  CC50: 15.1 µM (active)
[18]
  EC50: 5.6 µM
Mu-type opioid receptor [19]
  IC50: > 32 µM (inactive)
[20]
  EC50: > 32 µM (inactive)
Mu-type opioid receptor [21]
  EC50: > 32 µM (inactive)
[22]
  IC50: > 32 µM (inactive)
[23]
  IC50: > 32 µM (inactive)
[24]
  EC50: 8.35 µM
Mu-type opioid receptor [25]
  EC50: > 32 µM (inactive)
[26]
  IC50: > 32 µM (inactive)
[27]
  EC50: > 32 µM (inactive)

## CCOC(=O)COc1ccc(/C=N/NC(=O)c2ccc(-c3csc(Nc4ccc(Cl)cc4)n3)cc2)cc1
[28]
  IC50: 37.4 µM (active)
[29]
  IC50: 60.8 µM (active)
[30]
  IC50: 89 µM (active)
